Reference: publication PMC5557808 (Nature Communications, 2017)
Where a SMILES comes first, the peptide text is derived from it. [ ]: non-standard residue; d: D form. The star is where a group is joined. X1 = CC[N+](CC)(CC(=O)Nc1c(C)cccc1C)Cc1cccc(C(=O)*)c1; Aha = [N-]=[N+]=NCC[C@H](N)C(=O)O

Molecular target: T1, Leucine aminopeptidase (AP) (Sus scrofa, UniProt P15145)
T1 construct: Leucine aminopeptidase (AP; Mw = 280 kDa) from porcine kidney; purchased Sigma-Aldrich Chemie, Schnelldorf, Germany; host or cells: porcine kidney (tissue-derived)
T1 sequence (P15145 1-963): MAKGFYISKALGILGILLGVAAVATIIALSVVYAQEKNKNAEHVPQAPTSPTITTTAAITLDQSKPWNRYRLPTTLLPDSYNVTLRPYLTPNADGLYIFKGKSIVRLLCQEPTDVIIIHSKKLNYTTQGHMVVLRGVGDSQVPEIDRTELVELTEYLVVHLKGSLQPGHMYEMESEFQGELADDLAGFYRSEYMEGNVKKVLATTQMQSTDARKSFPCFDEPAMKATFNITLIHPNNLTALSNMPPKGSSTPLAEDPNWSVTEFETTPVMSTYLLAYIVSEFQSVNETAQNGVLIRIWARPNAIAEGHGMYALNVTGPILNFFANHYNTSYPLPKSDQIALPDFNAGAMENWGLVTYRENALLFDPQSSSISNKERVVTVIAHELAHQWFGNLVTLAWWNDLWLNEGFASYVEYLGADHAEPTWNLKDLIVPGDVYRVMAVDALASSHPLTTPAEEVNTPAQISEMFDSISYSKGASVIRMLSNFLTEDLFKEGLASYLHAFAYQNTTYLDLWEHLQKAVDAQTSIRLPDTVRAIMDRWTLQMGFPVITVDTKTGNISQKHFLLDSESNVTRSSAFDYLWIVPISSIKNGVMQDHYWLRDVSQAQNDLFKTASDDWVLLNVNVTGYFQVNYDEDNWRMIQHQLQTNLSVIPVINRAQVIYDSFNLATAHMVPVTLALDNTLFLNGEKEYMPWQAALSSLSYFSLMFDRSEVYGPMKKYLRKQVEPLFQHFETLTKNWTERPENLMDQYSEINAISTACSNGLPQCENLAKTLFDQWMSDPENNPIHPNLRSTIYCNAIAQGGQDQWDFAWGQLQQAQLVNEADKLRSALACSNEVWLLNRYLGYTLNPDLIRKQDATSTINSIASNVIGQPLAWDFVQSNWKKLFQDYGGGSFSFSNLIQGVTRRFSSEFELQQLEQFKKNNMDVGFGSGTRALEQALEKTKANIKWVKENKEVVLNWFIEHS
Experiment: Aminopeptidase (AP) incubation
Format: biochemical, porcine
Details: AP 3.1 nM (0.87 µg/mL), 30 min, 37 °C, after 22 h with 1800 ng/mL MMP-8; LC-MS
Protocol: Leucine aminopeptidase (AP; Mw = 280 kDa) from porcine kidney dissolved in AP buffer (50 mM Tris-HCl, 1 mM CaCl2, and 150 mM NaCl at pH 7.0) was used. L-leucine-p-nitroanilide (0.125 mg/mL) was used as control substrate. For AP digestion, 1 mg of purified lyophilized peptide was diluted in 2 mL AP buffer resulting in a final concentration of 0.5 mg/mL substrate. To evaluate the impact of AP concentration on peptide cleavage, AP was added at concentrations of 0 (negative control), 0.87, 8.7, 39, and 78 µg/mL and the samples were incubated at 37 °C for 1 h. For analysis of the AP incubation time, an AP concentration of 0.87 µg/mL was used and analyzed after 10, 20 min and 1, 2, 3, and 6 h. To stop the enzyme activity, samples were kept at 95 °C for 15 min. Afterwards, HPLC analyses were performed (as described in the Supplementary Information) to analyze the relative decrease of the main peak as compared to the negative control. Further details are given in the Supplementary Methods.
MMP -9) in a concentration of 0.4 ng/µL (50 µL) were mixed with MMP -8 buffer (37 µL), detection enz yme (5 µL) and substrate (8µL; all fro m Q uic kZ yme® ). The acti vi t y was meas ur ed for 12 hours in inter vals of 10 minutes. […]
Aminopeptidase (AP) incubation
Leucine A minopeptidase (AP; M w = 280 kD a) from porcine kidney dissolved in AP buffer (50 mM Tris-HCl, 1 mM CaCl2 and 150 mM NaCl at pH 7.0) was used. L-leu cin e-p-nitroan ilide (0.125mg/ mL) was used as control substr at e. […] Fo r anal ysis of the impact of AP incubation time, the identical conditions were used (AP concentration of 0.87 µg / mL (and analyzed after 10, 20 minutes and 1, 2, 3 and 6 hours ). To stop the enzymatic activit y, sa mp les wer e kept at 95 °C for 15 minutes. A fterwards, H PLC analys es were p erformed (as descr ibed) to an al yze th e relative d ecr eas e of the ma i n pea k as co mp ared to the negative control (see […]
V(B)/(V(A)+V(B)) = 5 % to 90 % over 10 min, V(B)/(V(A)+V(B)) = 90 % for 5 min, V(B)/(V(A)+V(B)) = 90 % to 5 % over 3 min. […] UV detection was measured at 254 nm. […]

CC[C@H](C)[C@H](NC(=O)CNC(=O)[C@H](CCC(N)=O)NC(=O)[C@@H]1CCCN1C(=O)CNC(=O)c1cccc(C[N+](CC)(CC)CC(=O)Nc2c(C)cccc2C)c1)C(=O)N[C@@H](C)C(=O)NCC(=O)N[C@@H](CCC(N)=O)C(=O)N[C@@H](CCN=[N+]=[N-])C(=O)N[C@@H](CCC(N)=O)C(=O)O [ID #1c] (X1-GPQGIAGQ[Aha]Q-OH)
effect of additional AP incubation after complete MMP-8 cleavage: no difference
